This is an account of results in ChEMBL document CHEMBL1147620, “Estrogen receptor ligands. Part 1: The discovery of flavanoids with subtype selectivity” (Bioorg Med Chem Lett, 2004).

The target in one assay is T1, Estrogen receptor (Homo sapiens, UniProt P03372).
T1 sequence (P03372 whole entry): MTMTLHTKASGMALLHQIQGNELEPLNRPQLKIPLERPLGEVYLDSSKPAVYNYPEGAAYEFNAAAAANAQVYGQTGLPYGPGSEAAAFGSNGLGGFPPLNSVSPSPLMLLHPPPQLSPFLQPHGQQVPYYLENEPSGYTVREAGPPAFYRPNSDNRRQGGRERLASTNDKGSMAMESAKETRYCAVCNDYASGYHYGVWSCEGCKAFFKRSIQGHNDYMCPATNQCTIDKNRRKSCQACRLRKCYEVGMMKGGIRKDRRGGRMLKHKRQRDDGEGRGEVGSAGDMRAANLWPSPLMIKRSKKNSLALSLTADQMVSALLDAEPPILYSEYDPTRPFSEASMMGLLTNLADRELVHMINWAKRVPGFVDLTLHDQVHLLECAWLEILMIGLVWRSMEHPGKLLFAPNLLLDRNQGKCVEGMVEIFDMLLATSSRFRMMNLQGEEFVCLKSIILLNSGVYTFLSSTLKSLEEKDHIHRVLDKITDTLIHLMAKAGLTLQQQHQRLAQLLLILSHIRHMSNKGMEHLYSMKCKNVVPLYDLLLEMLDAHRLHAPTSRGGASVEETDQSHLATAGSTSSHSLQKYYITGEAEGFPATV

Another assay has as its target Estrogen receptor beta (Homo sapiens, UniProt Q92731).

SMILES strings stand for the structures. Where only a bound is given, the exact number is not on record here.

Estrogen receptor beta, sequence (Q92731 whole entry): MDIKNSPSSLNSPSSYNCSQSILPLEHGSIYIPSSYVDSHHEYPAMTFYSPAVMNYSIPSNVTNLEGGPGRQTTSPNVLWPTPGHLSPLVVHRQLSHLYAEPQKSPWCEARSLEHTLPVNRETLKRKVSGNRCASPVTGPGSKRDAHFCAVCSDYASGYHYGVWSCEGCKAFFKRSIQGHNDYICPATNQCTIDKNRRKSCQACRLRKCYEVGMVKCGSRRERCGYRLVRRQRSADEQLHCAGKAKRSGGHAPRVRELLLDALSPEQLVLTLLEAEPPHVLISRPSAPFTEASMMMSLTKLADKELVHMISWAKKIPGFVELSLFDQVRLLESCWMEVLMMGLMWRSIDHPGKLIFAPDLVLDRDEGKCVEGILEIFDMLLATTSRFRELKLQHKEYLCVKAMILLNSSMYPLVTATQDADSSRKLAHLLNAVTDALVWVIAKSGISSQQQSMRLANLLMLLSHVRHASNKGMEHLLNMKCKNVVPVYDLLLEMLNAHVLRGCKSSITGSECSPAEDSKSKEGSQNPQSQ
Description for Estrogen receptor beta: Binding affinity against human estrogen receptor beta (ER beta) in competitive binding assay

As to `C[C@@H]1C(=O)c2ccc(O)cc2O[C@@H]1c1ccc(OCCN2CCCCC2)cc1`, the figures for the IC50 on Estrogen receptor and at Estrogen receptor beta were 3560 nM and 5640 nM, respectively.

`CC(C)[C@@H]1C(=O)c2ccc(O)cc2O[C@@H]1c1ccc(OCCN2CCCCC2)cc1`: the values for the IC50 at Estrogen receptor and at Estrogen receptor beta were 89 nM and 1200 nM, respectively.

For the compound `O=C1c2ccc(O)cc2O[C@H](c2ccc(OCCN3CCCCC3)cc2)[C@H]1c1ccc(O)cc1`, the IC50 against Estrogen receptor was 49 nM; at Estrogen receptor beta, 1950 nM.

Consider `O=C1c2ccccc2O[C@H](c2ccc(OCCN3CCCCC3)cc2)[C@@H]1c1ccc(O)cc1`, for which the values for the IC50 against Estrogen receptor and at Estrogen receptor beta were 179 nM and 510 nM, respectively.

As for `O=C1c2ccc(O)cc2O[C@H](c2ccc(OCCN3CCCCC3)cc2)[C@@H]1c1ccc(O)cc1`, the IC50 against Estrogen receptor came out at 31 nM; against Estrogen receptor beta, 2050 nM.

In the case of `CCCc1cc(O)cc2c1C(=O)[C@@H](c1ccc(O)cc1)[C@@H](c1ccc(OCCN3CCCCC3)cc1)O2`, the results for the IC50 on Estrogen receptor and against Estrogen receptor beta were 652 nM and 207 nM, respectively.

On to `Oc1ccc([C@@H]2Cc3ccc(O)cc3O[C@@H]2c2ccc(OCCN3CCCCC3)cc2)cc1`, for which the IC50 against Estrogen receptor worked out at 6.7 nM; against Estrogen receptor beta, 8.9 nM.

As to `O=C1c2ccc(O)cc2O[C@H](c2ccc(OCCN3CCCCC3)cc2)[C@@H]1c1ccccc1`, the IC50 is 531 nM against Estrogen receptor and 10000 nM on Estrogen receptor beta.

Take `C[C@@H]1C(=O)c2c(O)cc(O)cc2O[C@@H]1c1ccc(OCCN2CCCCC2)cc1`: the IC50 was determined as 551 nM on Estrogen receptor and 1200 nM at Estrogen receptor beta.

Turning to `Cc1cc(O)cc2c1C(=O)[C@@H](c1ccc(O)cc1)[C@@H](c1ccc(OCCN3CCCCC3)cc1)O2`, the IC50 amounted to 14 nM at Estrogen receptor and 546 nM against Estrogen receptor beta.

`O=C1c2ccc(O)cc2O[C@H](c2ccc(O)cc2)[C@@H]1c1ccc(O)cc1`: the results for the IC50 on Estrogen receptor and against Estrogen receptor beta were 490 nM and 598 nM, respectively.

For `CC(C)[C@H]1C(=O)c2ccc(O)cc2O[C@@H]1c1ccc(OCCN2CCCCC2)cc1`, the IC50 against Estrogen receptor was determined as 109 nM; on Estrogen receptor beta, 930 nM.

On to `COc1cc(O)ccc1[C@@H]1C(=O)c2ccc(O)cc2O[C@@H]1c1ccc(OCCN2CCCCC2)cc1`, for which the IC50 against Estrogen receptor came to 149 nM; against Estrogen receptor beta, 1360 nM.

In the case of `COc1cc([C@@H]2C(=O)c3ccc(O)cc3O[C@@H]2c2ccc(OCCN3CCCCC3)cc2)ccc1O`, the values for the IC50 against Estrogen receptor and at Estrogen receptor beta were 413 nM and greater than 10000 nM, respectively.

Take `Cc1cc([C@@H]2C(=O)c3ccc(O)cc3O[C@@H]2c2ccc(OCCN3CCCCC3)cc2)cc(C)c1O`: the IC50 is 1050 nM against Estrogen receptor and greater than 10000 nM at Estrogen receptor beta.

For `O=C1c2c(F)cc(O)cc2O[C@H](c2ccc(OCCN3CCCCC3)cc2)[C@@H]1c1ccc(O)cc1`, the IC50 stood at 105 nM at Estrogen receptor and 5390 nM at Estrogen receptor beta.

Turning to `O/N=C1\c2ccc(O)cc2O[C@H](c2ccc(OCCN3CCCCC3)cc2)[C@@H]1c1ccc(O)cc1`, the IC50 against Estrogen receptor was determined as 1040 nM; against Estrogen receptor beta it was 8610 nM.

With `CCc1cc(O)cc2c1C(=O)[C@@H](c1ccc(O)cc1)[C@@H](c1ccc(OCCN3CCCCC3)cc1)O2`, the results for the IC50 on Estrogen receptor and at Estrogen receptor beta were 68 nM and 152 nM, respectively.

Take `Oc1ccc([C@H]2[C@@H](c3ccc(OCCN4CCCCC4)cc3)Oc3cc(O)ccc3[C@@H]2O)cc1`: the IC50 on Estrogen receptor came to 929 nM; against Estrogen receptor beta it was 7000 nM.

Take `CCCCCc1cc(O)cc2c1C(=O)[C@@H](c1ccc(O)cc1)[C@@H](c1ccc(OCCN3CCCCC3)cc1)O2`: the IC50 stood at 71 nM on Estrogen receptor and 454 nM against Estrogen receptor beta.

For the compound `O=C1c2c(Cl)cc(O)cc2O[C@H](c2ccc(OCCN3CCCCC3)cc2)[C@@H]1c1ccc(O)cc1`, the IC50 at Estrogen receptor is 58 nM; against Estrogen receptor beta, 1270 nM.

Consider `C[C@H]1C(=O)c2ccc(O)cc2O[C@@H]1c1ccc(OCCN2CCCCC2)cc1`, for which the IC50 on Estrogen receptor is 1410 nM; at Estrogen receptor beta, greater than 10000 nM.

Usually IC50 stands for the concentration that gives 50% inhibition.
